Broadly, the IC50 is the concentration that gives 50% inhibition.

Here are results for 14 molecules from patent US6294674A, “Dibenzofuran sulfonamide matrix metalloproteinase inhibitors” (priority 1999, dated 2001).

For assay [1], the target named is gelatinase A catalytic domain (MMP02). Kind of assay: Thiopeptolide assay, gelatinase A catalytic domain (GCD, MMP02). The assay is classed as biochemical. On the procedure:
(§1) Hydrolysis of the thiopeptolide substrate Ac-Pro-Leu-Gly-thioester-Leu-Leu-Gly-OEt (Bachem) is used as the primary screen to determine IC50 values for MMP inhibitors. A 100 μL reaction contains 1 mM 5,5'-dithiobis(2-nitrobenzoic acid) (DTNB), 100 μM substrate, 0.1% Brij, enzyme, and inhibitor in the appropriate reaction buffer. Activated full-length enzymes are assayed at 5 nM, Stromelysin Catalytic Domain (SCD) at 10 nM, and Gelatinase A Catalytic Domain (GaCD) at 1 nM. Inhibitors are screened from 100 μM to 1 nM. Full-length enzymes are assayed in 50 mM HEPES, 10 mM CaCl2, pH 7.0; SCD in 50 mM MES, 10 mM CaCl2, pH 6.0; and GaCD in 50 mM MOPS, 10 mM CaCl2, 10 μM ZnCl2, pH 7.0.

The target in assay [2] is T1, MMP07 (Homo sapiens, UniProt P09237).
T1 construct: made in house; host or cells: Escherichia coli
T1 sequence (P09237 95-267): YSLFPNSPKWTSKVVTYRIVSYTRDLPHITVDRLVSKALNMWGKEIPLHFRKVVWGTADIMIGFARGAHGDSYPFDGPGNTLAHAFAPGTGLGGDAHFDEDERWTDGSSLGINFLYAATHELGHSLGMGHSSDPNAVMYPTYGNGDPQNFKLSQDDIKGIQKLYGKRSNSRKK
In words: Thiopeptolide assay, MMP07. The assay is classed as biochemical. The procedure: (§2) MMP01, MMP07, MMP09, and MMP13 activity was assayed in a method similar to MMP02 and MMP03 (SCD and GCD). MMP01 and MMP09 can be obtained from Washington University School of Medicine, St. Louis, Mo. MMP07 can be obtained in accordance with the known procedure set forth by Ye QZ, Johnson L. L., and Baragi V., "Gene Syntheses and Expression in E. coli for PUMP, a Human Matrix Metalloproteinase" Biochem. and Biophys. […] MMP 13 can be obtained in accordance with the known procedure set forth by Freije J. M. P., et al., "Molecular Cloning and Expression of Collegenase-3, a Novel Human Matrix Metalloproteinase Produced by Breast Carcinomas" J. Bio.
as §1

In assay [3] the target is T2, MMP01 (Homo sapiens, UniProt P03956).
T2 construct: purchased Washington University School of Medicine, St. Louis, Mo
T2 sequence (P03956 100-469): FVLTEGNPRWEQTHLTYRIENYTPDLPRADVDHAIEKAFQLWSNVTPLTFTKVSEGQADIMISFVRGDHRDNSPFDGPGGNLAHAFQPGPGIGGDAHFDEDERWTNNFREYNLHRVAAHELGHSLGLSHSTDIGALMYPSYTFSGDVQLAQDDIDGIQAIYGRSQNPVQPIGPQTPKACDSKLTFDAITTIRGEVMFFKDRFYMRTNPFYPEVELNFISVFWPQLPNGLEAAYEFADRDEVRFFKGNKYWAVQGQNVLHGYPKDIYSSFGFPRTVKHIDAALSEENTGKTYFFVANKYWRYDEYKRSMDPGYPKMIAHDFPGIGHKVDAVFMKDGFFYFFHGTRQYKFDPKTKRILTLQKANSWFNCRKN
Kind of assay: Thiopeptolide assay, MMP01. The format is biochemical. The procedure: as §2, §1

In assay [4] the test system is MMP-13CD. Kind of assay: Thiopeptolide assay, MMP-13CD. The assay is classed as biochemical, human. As to conditions: Tables 2, 3, 5, 7. The procedure:
IC50 values were determined using a thiopeptolide substrate, Ac-Pro-Leu-Gly-thioester-Leu-Leu-Gly-OEt (Ye Q.-Z., Johnson L. L., Hupe D. J., and Baragi V., "Purification and Characterization of the Human Stromelysin Catalytic Domain Expressed in Escherichia coli," Biochemistry, 1992;31:11231-11235). MMP01, MMP07, MMP09, and MMP13 activity was assayed in a method similar to MMP02 and MMP03 (SCD and GCD). MMP01 and MMP09 can be obtained from Washington University School of Medicine, St. Louis, Mo. MMP07 can be obtained in accordance with the known procedure set forth by Ye QZ, Johnson L. L., and Baragi V., "Gene Syntheses and Expression in E. coli for PUMP, a Human Matrix Metalloproteinase" Biochem. and Biophys. Res. Comm., 1992; 186:143-149. MMP 13 can be obtained in accordance with the known procedure set forth by Freije J. M. P., et al., "Molecular Cloning and Expression of Collegenase-3, a Novel Human Matrix Metalloproteinase Produced by Breast Carcinomas" J. Bio. Chem., 1994;269:16766-6773.
as §1, with “7.0. The change in absorbance at 405 riM is monitored on a ThermoMax microplate reader at room temperature continuously for 20 minutes.” for “7.0.”

The target in assay [5] is T3, stromelysin-1 catalytic domain (MMP03) (Homo sapiens, UniProt P08254).
T3 construct: SCD (stromelysin-1 catalytic domain); made in house; host or cells: Escherichia coli
In words: Thiopeptolide assay, stromelysin-1 catalytic domain (SCD, MMP03). The format is biochemical. The procedure: as §1

[6] abbreviates: Tables 2, 3, 5, 7, read-out: IC50 MMP-2CD.
Setting [7] is: Tables 2, 3, 5, 7, read-out: IC50 MMP-7.
Setting [8] is: Tables 2, 3, 5, 7, read-out: IC50 MMP1.
[9] abbreviates: Tables 2, 3, 5, 7, read-out: IC50 MMP 3CD.
[10] abbreviates: Table 1, GCD, read-out: IC50 MMP02.
Setting [11] is: Table 1, SCD, read-out: IC50 MMP03.

Like-named read-outs stand apart in the source and are kept apart here.

T3 sequence (P08254 100-272 limits assumed): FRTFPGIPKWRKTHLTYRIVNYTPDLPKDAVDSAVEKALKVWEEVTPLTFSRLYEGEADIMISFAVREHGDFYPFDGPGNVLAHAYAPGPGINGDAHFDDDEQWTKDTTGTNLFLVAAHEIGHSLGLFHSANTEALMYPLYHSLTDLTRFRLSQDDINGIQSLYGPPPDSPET

As for `CC(=O)Nc1ccc(S(=O)(=O)NCCCCC(NS(=O)(=O)c2ccc3oc4ccccc4c3c2)C(=O)O)cc1` (stereo not drawn) [Example D5, 6-(4-Acetylamino-benzensulfonylamino)-2-(dibenzofuran-2-sulfonylamino)-hexanoic acid], the 50% inhibitory concentration (IC50) in assay [1] (setting [6]) was 1.2 µM; in assay [2] (setting [7]), > 100 µM; in assay [3] (setting [8]), > 100 µM; in assay [4] it was 7.7 µM; in assay [5] (setting [9]) it was 8.6 µM.

Take `O=C(NCCCCC(NS(=O)(=O)c1ccc2oc3ccccc3c2c1)C(=O)O)Nc1ccc(Cl)c(Cl)c1` (stereo not drawn) [Example B2, 2-(Dibenzofuran-2-sulfonylamino)-6-[3-(3,4dichloro-phenyl)-ureido]-hexanoicacid]: the half-maximal inhibitory concentration (IC50) in assay [1] (setting [6]) is 22.2 µM; in assay [2] (setting [7]) it was > 100 µM; in assay [3] (setting [8]), > 100 µM; in assay [4], > 100 µM; in assay [5] (setting [9]) it was 89.3 µM.

Regarding `O=C(O)C(CCCCNS(=O)(=O)c1ccc2ccccc2c1)NS(=O)(=O)c1ccc2oc3ccccc3c2c1` (stereo not drawn) [Example D8, 2-(Dibenzofuran-2-sulfonylamino)-6-(naphthalene-2-sulfonylamino)-hexanoic acid], the IC50 is 7 µM in assay [1] (setting [6]); > 100 µM in assay [2] (setting [7]); > 100 µM in assay [3] (setting [8]); 39 µM in assay [4]; 19 µM in assay [5] (setting [9]).

In the case of `C=CCNC(=O)NCCCCC(NS(=O)(=O)c1ccc2oc3ccccc3c2c1)C(=O)O` (stereo not drawn) [Example B8, 6-(3-Allyl-ureido)-2-(dibenzofuran-2-sulfonylamino)-hexanoic acid], the IC50 is 1.1 µM in assay [1] (setting [6]); > 100 µM in assay [2] (setting [7]); > 100 µM in assay [3] (setting [8]); 7.6 µM in assay [4]; 3 µM in assay [5] (setting [9]).

With `CCCc1ccc(NC(=O)CCC(NS(=O)(=O)c2ccc3oc4ccccc4c3c2)C(=O)O)cc1` (stereo not drawn) [Example F4, 2-(Dibenzofuran-2-sulfonylamino)-4-(4-propyl-phenylcarbamoyl)-butyric acid], the concentration for half-maximal inhibition (IC50) in assay [1] (setting [6]) came out at 0.3 µM; in assay [2] (setting [7]), 42.7 µM; in assay [3] (setting [8]) it was 93.7 µM; in assay [4], 2.2 µM; in assay [5] (setting [9]) it was 0.6 µM.

Take `O=C(O)C(CCCCNC(=S)NC12CC3CC(CC(C3)C1)C2)NS(=O)(=O)c1ccc2oc3ccccc3c2c1` (stereo not drawn) [Example B6, 6-(3-Adamantan-1-yl-thioureido)-2-(dibenzofuran-2-sulfonylamino)-hexanoic acid]: the half-maximal inhibitory concentration (IC50) in assay [1] (setting [6]) was 3.1 µM; in assay [2] (setting [7]) it was > 100 µM; in assay [3] (setting [8]), > 100 µM; in assay [4], 4.4 µM; in assay [5] (setting [9]) it was 9 µM.

Regarding `O=C(CCC(NS(=O)(=O)c1ccc2oc3ccccc3c2c1)C(=O)O)NCCCCc1ccccc1` (stereo not drawn) [Example F13, 2-(Dibenzofuran-2-sulfonylamino)-4-(4-phenyl-butylcarbamoyl)-butyric acid], the IC50 in assay [1] (setting [6]) was 9.3 µM; in assay [2] (setting [7]), > 100 µM; in assay [3] (setting [8]) it was > 100 µM; in assay [4], 24.1 µM; in assay [5] (setting [9]), 26.5 µM.

On to `O=C(CCCc1ccccc1)NCCCCC(NS(=O)(=O)c1ccc2oc3ccccc3c2c1)C(=O)O` (stereo not drawn) [Example A26, 2-(Dibenzofuran-2-sulfonylamino)-6-(4-phenyl-butyrylamino)-hexanoic acid], for which the IC50 in assay [1] (setting [6]) was 1.5 µM; in assay [2] (setting [7]), > 100 µM; in assay [3] (setting [8]), > 100 µM; in assay [4], 5.4 µM; in assay [5] (setting [9]), 4.2 µM.

On to `COc1ccc(OCC(=O)NCCCCC(NS(=O)(=O)c2ccc3oc4ccccc4c3c2)C(=O)O)cc1` (stereo not drawn) [Example A13, 2-(Dibenzofuran-2-sulfonylamino)-6-[2-(4-methoxy-phenoxy)-acetylamino]-hexanoic acid], for which the IC50 was 1.2 µM in assay [1] (setting [6]); > 100 µM in assay [2] (setting [7]); > 100 µM in assay [3] (setting [8]); 7.3 µM in assay [4]; 2.3 µM in assay [5] (setting [9]).

Turning to `O=C(CCC(NS(=O)(=O)c1ccc2oc3ccccc3c2c1)C(=O)O)NCc1ccccc1` (stereo not drawn) [Example F10, 4-Benzylcarbamoyl-2-(dibenzofuran-2-sulfonylamino)-butyric acid], the IC50 in assay [1] (setting [6]) was 2.1 µM; in assay [2] (setting [7]), 74.1 µM; in assay [3] (setting [8]), > 100 µM; in assay [4], 1.9 µM; in assay [5] (setting [9]) it was 2.7 µM.

Regarding `O=C(O)C(CCCCNC(=O)C1(c2ccccc2)CC1)NS(=O)(=O)c1ccc2oc3ccccc3c2c1` (stereo not drawn) [Example A38, 2-(Dibenzofuran-2-sulfonylamino)-6-(1-phenyl-cyclopropanecarbonylamino)-hexanoic acid], the IC50 was 0.6 µM in assay [1] (setting [6]); > 100 µM in assay [2] (setting [7]); > 100 µM in assay [3] (setting [8]); 4.2 µM in assay [4]; 1.4 µM in assay [5] (setting [9]).

Consider `O=C(CCc1ccc(Cl)cc1)NCCCCC(NS(=O)(=O)c1ccc2oc3ccccc3c2c1)C(=O)O` (stereo not drawn) [Example A28, 6-[3-(4-Chloro-phenyl)-propionylamino]-2-(dibenzofuran-2-sulfonylamino)-hexanoic acid], for which the 50% inhibitory concentration (IC50) in assay [1] (setting [6]) is 1.8 µM; in assay [2] (setting [7]) it was > 100 µM; in assay [3] (setting [8]) it was > 100 µM; in assay [4], 8.7 µM; in assay [5] (setting [9]), 4.5 µM.

For `O=C(NCCCC[C@H](NS(=O)(=O)c1ccc2oc3ccccc3c2c1)C(=O)O)OCc1ccccc1` [Example 3, 6-Benzyloxycarbonylamino-2-(dibenzofuran-2-sulfonylamino)-hexanoic acid], the IC50 is 0.35 µM in assay [1] (setting [10]); 3.3 µM in assay [2] (Table 1, read-out: IC50 MMP07); 62 µM in assay [3] (Table 1, read-out: IC50 MMP01); 0.18 µM in assay [5] (setting [11]).

Take `CC(C)C[C@H](CNS(=O)(=O)c1ccc2oc3ccccc3c2c1)CC(=O)O` [Example 2, 2(S)-3-[(Dibenzofuran-2-sulfonylamino)-methyl]-5-methyl-hexanoic acid]: the IC50 in assay [1] (setting [10]) turned out to be 100 µM; in assay [5] (setting [11]), 86 µM.
